Where two headings read alike, the source gives them in different places.
Assays:
PI3Kδ kinase = PI3Kδ kinase (Homo sapiens (Human), UniProt O00329); experiment: PI3Kδ kinase ADP-Glo assay (Reaction Biology Corporation); conditions: read-out: PI3Kδ IC50
FMS kinase = FMS kinase (Homo sapiens (Human), UniProt P07333); experiment: LanthaScreen kinase assay (ATP, fluorescent-PolyGT substrate, TR-FRET); format: biochemical
MCF-7 = experiment: Cancer cell proliferation assay, single agent; format: cell-based; conditions: Homo sapiens
CDK6 = CDK6 (Homo sapiens (Human), UniProt Q00534); experiment: biochemical; format: biochemical
CDK4 = CDK4 (Homo sapiens (Human), UniProt P11802); experiment: In vitro kinase inhibition, luminescence (ADP-Glo) with retinoblastoma substrate; format: biochemical
DU4475 = experiment: Cancer cell proliferation assay, single agent; format: cell-based; conditions: Homo sapiens
[1] = MCF7, MCF-7 cells, treated for 24-168 hours, read-out: IC50 (nM) MCF-7
[2] = DU-4475, DU4475 cells, treated for 24-168 hours, read-out: IC50 (nM) DU4475
[3] = DU-4475, read-out: IC50 (nM) DU4475

CDK4, sequence (P11802 whole entry): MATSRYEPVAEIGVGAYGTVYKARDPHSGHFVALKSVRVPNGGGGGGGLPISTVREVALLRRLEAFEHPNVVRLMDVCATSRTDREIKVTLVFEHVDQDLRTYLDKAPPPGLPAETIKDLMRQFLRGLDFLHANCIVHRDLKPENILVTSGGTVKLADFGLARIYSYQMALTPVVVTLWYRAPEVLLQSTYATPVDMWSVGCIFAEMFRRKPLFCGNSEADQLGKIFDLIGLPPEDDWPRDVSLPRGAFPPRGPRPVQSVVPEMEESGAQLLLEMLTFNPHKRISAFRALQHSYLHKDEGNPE
CDK4, sequence (P24385 whole entry partner): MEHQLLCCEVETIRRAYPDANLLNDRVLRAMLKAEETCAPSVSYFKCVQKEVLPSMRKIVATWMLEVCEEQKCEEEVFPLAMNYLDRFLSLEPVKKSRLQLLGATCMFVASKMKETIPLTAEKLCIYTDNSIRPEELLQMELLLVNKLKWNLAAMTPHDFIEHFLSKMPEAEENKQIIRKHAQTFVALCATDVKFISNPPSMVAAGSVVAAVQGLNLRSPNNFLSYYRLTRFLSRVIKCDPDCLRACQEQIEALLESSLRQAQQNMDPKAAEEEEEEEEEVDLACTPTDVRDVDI
PI3Kδ kinase, sequence (O00329 whole entry): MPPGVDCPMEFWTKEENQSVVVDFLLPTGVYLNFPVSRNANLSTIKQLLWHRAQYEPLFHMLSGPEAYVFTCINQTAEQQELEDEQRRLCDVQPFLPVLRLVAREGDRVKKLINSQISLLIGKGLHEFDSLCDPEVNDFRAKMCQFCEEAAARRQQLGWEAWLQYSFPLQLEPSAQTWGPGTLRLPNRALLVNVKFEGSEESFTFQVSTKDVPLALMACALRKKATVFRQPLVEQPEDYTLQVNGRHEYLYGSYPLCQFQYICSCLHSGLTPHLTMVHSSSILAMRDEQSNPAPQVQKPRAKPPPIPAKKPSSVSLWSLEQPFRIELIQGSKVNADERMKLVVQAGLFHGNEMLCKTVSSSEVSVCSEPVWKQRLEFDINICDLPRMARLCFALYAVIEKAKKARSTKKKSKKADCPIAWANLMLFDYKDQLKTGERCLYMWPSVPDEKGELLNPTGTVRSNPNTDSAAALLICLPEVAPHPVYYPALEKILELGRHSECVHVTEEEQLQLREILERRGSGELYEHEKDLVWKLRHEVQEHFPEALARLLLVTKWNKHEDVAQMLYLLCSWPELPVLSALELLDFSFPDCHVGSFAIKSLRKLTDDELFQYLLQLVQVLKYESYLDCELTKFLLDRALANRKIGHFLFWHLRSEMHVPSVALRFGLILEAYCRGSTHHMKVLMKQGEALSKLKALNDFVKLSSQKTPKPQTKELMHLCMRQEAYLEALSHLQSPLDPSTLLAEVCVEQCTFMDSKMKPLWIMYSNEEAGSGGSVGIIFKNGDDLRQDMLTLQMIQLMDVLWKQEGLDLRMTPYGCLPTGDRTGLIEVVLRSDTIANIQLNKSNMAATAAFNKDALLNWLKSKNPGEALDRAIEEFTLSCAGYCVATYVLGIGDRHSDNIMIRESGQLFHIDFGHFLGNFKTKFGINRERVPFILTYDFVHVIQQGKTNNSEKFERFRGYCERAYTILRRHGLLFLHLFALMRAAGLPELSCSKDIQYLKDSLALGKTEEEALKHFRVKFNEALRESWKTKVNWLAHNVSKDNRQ
PI3Kδ kinase, sequence (P27986 whole entry partner): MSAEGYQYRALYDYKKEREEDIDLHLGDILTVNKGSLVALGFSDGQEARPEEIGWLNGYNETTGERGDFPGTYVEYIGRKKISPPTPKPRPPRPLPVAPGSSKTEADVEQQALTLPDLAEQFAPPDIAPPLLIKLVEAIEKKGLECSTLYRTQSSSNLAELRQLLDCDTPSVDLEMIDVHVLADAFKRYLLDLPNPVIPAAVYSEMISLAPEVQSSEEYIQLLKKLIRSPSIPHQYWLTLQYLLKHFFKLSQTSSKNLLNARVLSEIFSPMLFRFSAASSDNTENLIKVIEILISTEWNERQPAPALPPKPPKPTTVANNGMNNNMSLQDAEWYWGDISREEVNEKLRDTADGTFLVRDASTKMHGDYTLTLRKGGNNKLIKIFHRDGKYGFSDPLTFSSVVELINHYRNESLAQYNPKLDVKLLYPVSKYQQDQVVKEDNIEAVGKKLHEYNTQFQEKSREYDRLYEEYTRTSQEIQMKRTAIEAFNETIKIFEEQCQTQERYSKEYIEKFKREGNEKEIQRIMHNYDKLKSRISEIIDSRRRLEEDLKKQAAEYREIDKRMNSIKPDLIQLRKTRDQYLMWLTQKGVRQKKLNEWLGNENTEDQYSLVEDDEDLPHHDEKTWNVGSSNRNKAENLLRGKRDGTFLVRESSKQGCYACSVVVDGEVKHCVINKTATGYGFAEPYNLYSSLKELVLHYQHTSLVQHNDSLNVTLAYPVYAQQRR
FMS kinase, sequence (P07333 20-972): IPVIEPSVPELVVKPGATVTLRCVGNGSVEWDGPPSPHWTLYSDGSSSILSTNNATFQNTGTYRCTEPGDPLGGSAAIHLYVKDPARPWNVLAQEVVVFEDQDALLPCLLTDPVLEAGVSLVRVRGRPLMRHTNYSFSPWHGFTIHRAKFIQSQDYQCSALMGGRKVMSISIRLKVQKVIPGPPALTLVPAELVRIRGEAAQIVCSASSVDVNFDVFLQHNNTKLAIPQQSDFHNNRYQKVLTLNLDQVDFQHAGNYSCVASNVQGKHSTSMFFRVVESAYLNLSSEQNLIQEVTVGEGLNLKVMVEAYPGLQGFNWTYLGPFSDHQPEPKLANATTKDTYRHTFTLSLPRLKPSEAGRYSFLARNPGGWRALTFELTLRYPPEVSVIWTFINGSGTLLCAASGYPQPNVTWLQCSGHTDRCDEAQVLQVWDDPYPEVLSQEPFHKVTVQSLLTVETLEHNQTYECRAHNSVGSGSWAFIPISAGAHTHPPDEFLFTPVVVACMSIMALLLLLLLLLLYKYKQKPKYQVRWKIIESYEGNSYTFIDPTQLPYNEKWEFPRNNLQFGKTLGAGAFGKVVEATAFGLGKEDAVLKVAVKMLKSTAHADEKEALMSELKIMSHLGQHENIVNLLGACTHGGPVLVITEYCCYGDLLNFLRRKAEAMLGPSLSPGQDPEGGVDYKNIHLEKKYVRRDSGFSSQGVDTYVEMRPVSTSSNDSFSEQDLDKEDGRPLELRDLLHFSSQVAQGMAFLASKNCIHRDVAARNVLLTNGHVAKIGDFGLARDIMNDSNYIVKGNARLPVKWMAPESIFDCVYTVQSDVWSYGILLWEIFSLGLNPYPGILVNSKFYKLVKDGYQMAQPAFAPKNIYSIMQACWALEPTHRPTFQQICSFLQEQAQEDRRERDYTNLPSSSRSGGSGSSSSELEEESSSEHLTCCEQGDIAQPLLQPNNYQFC

Row | Structure (SMILES) | IC50 (PI3Kδ kinase) | IC50 (FMS kinase) | IC50 (MCF-7; MCF7, read-out: IC50 (nM) MCF-7) | IC50 (CDK6) | IC50 (CDK4) | IC50 (MCF-7; [1]) | IC50 (DU4475; [2]) | IC50 (DU4475; [3])
1 | CC(C)N1CCOc2c(F)cc(-c3nc(Nc4ccc(N5CCNCC5)nc4)ncc3F)cc21 [Compound 23, 5-fluoro-4-(8-fluoro-4-isopropyl-3,4-dihydro-2H-benzo[b][1,4]oxazin-6-yl)-N-(6-(piperazin-1-yl)pyridin-3-yl)pyrimidin-2-amine] | 4880 nM | 25 nM | < 10 nM |  |  |  |  | 
2 | CC(C)N1CCOc2c(F)cc(-c3nc(Nc4ccc(N5CCN(C(=O)CN(C)C)CC5)cc4)ncc3F)cc21 [Compound 440, 2-(dimethylamino)-1-(4-(4-((5-fluoro-4-(8-fluoro-4-isopropyl-3,4-dihydro-2H-benzo[b][1,4]oxazin-6-yl)pyrimidin-2-yl)amino)phenyl)piperazin-1-yl)ethan-1-one] | 35000 nM | 24 nM |  | 2 nM | 2 nM | 30 nM |  | 
3 | CC(C)N1CCOc2c(F)cc(-c3nc(Nc4ccc(N5CCN(C(=O)CN(C)C)CC5)cn4)ncc3F)cc21 [Compound 441, 2-(dimethylamino)-1-(4-(6-((5-fluoro-4-(8-fluoro-4-isopropyl-3,4-dihydro-2H-benzo[b][1,4]oxazin-6-yl)pyrimidin-2-yl)amino)pyridin-3-yl)piperazin-1-yl)ethan-1-one] | > 50000 nM | 526 nM |  | 0.6 nM | 1 nM | 95 nM |  | 
4 | CC(C)N1CCOc2c(F)cc(-c3nc(Nc4cc(F)c(C5CCNCC5)cn4)ncc3F)cc21 [Compound 443, 5-fluoro-4-(8-fluoro-4-isopropyl-3,4-dihydro-2H-benzo[b][1,4]oxazin-6-yl)-N-(4-fluoro-5-(piperidin-4-yl)pyridin-2-yl)pyrimidin-2-amine] | > 50000 nM | 950 nM |  | 3 nM | 3 nM | 285 nM |  | 
5 | CC(C)N1CCOc2c(F)cc(-c3nc(Nc4cc5n(n4)CCN(C)C5)ncc3F)cc21 [Compound 444, N-(5-fluoro-4-(8-fluoro-4-isopropyl-3,4-dihydro-2H-benzo[b][1,4]oxazin-6-yl)pyrimidin-2-yl)-5-methyl-4,5,6,7-tetrahydropyrazolo[1,5-a]pyrazin-2-amine] | > 50000 nM | 67 nM |  | 3.4 nM | 1.6 nM | 1250 nM |  | 
6 | CC(C)N1CCOc2c(F)cc(-c3nc(Nc4cnn(C5CCNCC5)c4)ncc3F)cc21 [Compound 448, 5-fluoro-4-(8-fluoro-4-isopropyl-3,4-dihydro-2H-benzo[b][1,4]oxazin-6-yl)-N-(1-(piperidin-4-yl)-1H-pyrazol-4-yl)pyrimidin-2-amine] | 8020 nM | 8 nM |  |  | 3.2 nM | 50 nM |  | 
7 | CC(C)N1CCOc2c(F)cc(-c3nc(Nc4ccc(C(=O)N5CCOCC5)c(F)c4)ncc3F)cc21 [Compound 457, (2-fluoro-4-((5-fluoro-4-(8-fluoro-4-isopropyl-3,4-dihydro-2H-benzo[b][1,4]oxazin-6-yl)pyrimidin-2-yl)amino)phenyl)(morpholino)methanone] |  | 68 nM |  | 7.5 nM | 3.5 nM | 55 nM | 30 nM | 
8 | CC(C)N1CCOc2c(F)cc(-c3nc(Nc4ccc(C(=O)N5CCC(O)CC5)c(F)c4)ncc3F)cc21 [Compound 458, (2-fluoro-4-((5-fluoro-4-(8-fluoro-4-isopropyl-3,4-dihydro-2H-benzo[b][1,4]oxazin-6-yl)pyrimidin-2-yl)amino)phenyl)(4-hydroxypiperidin-1-yl)methanone] |  | 29 nM |  | 10 nM | 0.5 nM | 30 nM |  | 35 nM
9 | CCN1CCN(Cc2ccc(Nc3ncc(F)c(-c4cc(F)c5c(c4)N(C(C)C)CCO5)n3)cc2F)CC1 [Compound 461, N-(4-((4-ethylpiperazin-1-yl)methyl)-3-fluorophenyl)-5-fluoro-4-(8-fluoro-4-isopropyl-3,4-dihydro-2H-benzo[b][1,4]oxazin-6-yl)pyrimidin-2-amine] |  | 17 nM |  | 9 nM | 3.5 nM | 30 nM | 50 nM | 
10 | CC(C)N1CCOc2c(F)cc(-c3nc(Nc4ccc(CN5CCC(N(C)C)CC5)c(F)c4)ncc3F)cc21 [Compound 462, N-(4-((4-(dimethylamino)piperidin-1-yl)methyl)-3-fluorophenyl)-5-fluoro-4-(8-fluoro-4-isopropyl-3,4-dihydro-2H-benzo[b][1,4]oxazin-6-yl)pyrimidin-2-amine] |  | 25 nM |  | 9 nM | 5.5 nM | 40 nM | 65 nM | 
11 | CC(C)N1CCOc2c(F)cc(-c3nc(Nc4ccc(C(=O)N5CCC(N(C)C)CC5)c(F)c4)ncc3F)cc21 [Compound 463, (4-(dimethylamino)piperidin-1-yl)(2-fluoro-4-((5-fluoro-4-(8-fluoro-4-isopropyl-3,4-dihydro-2H-benzo[b][1,4]oxazin-6-yl)pyrimidin-2-yl)amino)phenyl)methanone] |  | 17 nM |  | 3.5 nM | 1.5 nM | 20 nM | 25 nM | 
12 | CCN1CCN(C(=O)c2ccc(Nc3ncc(F)c(-c4cc(F)c5c(c4)N(C(C)C)CCO5)n3)cc2F)CC1 [Compound 464, (4-ethylpiperazin-1-yl)(2-fluoro-4-((5-fluoro-4-(8-fluoro-4-isopropyl-3,4-dihydro-2H-benzo[b][1,4]oxazin-6-yl)pyrimidin-2-yl)amino)phenyl)methanone] |  | 42 nM |  | 22 nM | 8.5 nM | 85 nM | 80 nM | 
13 | CC(C)N1CCOc2c(F)cc(-c3nc(Nc4ccc(N5CCSCC5)c(F)c4)ncc3F)cc21 [Compound 469, 5-fluoro-4-(8-fluoro-4-isopropyl-3,4-dihydro-2H-benzo[b][1,4]oxazin-6-yl)-N-(3-fluoro-4-thiomorpholinophenyl)pyrimidin-2-amine] | > 30000 nM | 46 nM |  |  |  | 495 nM |  | 
14 | CC1CN(c2ccc(Nc3ncc(F)c(-c4cc(F)c5c(c4)N(C(C)C)CCO5)n3)nc2)CC(C)O1 (centres unmarked) [Compound 515, N-(5-(2,6-dimethylmorpholino)pyridin-2-yl)-5-fluoro-4-(8-fluoro-4-isopropyl-3,4-dihydro-2H-benzo[b][1,4]oxazin-6-yl)pyrimidin-2-amine] |  |  |  | > 200 nM | 145 nM | 2500 nM | > 10000 nM | 
15 | CC(C)N1CCOc2c(F)cc(-c3nc(Nc4ccc(CN5CCN(CC6CC6)CC5)cn4)ncc3F)cc21 [Compound 516, N-(5-((4-(cyclopropylmethyl)piperazin-1-yl)methyl)pyridin-2-yl)-5-fluoro-4-(8-fluoro-4-isopropyl-3,4-dihydro-2H-benzo[b][1,4]oxazin-6-yl)pyrimidin-2-amine] |  |  |  | 4 nM | 1 nM | 155 nM | 995 nM | 
16 | CC(C)N1CCOc2c(F)cc(-c3nc(Nc4ccc(C5CCN(C)CC5)nn4)ncc3F)cc21 [Compound 517, N-(5-fluoro-4-(8-fluoro-4-isopropyl-3,4-dihydro-2H-benzo[b][1,4]oxazin-6-yl)pyrimidin-2-yl)-6-(1-methylpiperidin-4-yl)pyridazin-3-amine] |  |  |  | 4 nM | 1.5 nM | 108 nM | 275 nM | 
17 | CC(C)N1CCOc2c(F)cc(-c3nc(Nc4ccc(C(N)=O)cn4)ncc3F)cc21 [Compound 521, 6-((5-fluoro-4-(8-fluoro-4-isopropyl-3,4-dihydro-2H-benzo[b][1,4]oxazin-6-yl)pyrimidin-2-yl)amino)nicotinamide] |  |  |  | 19.8 nM | 5.5 nM | 3670 nM | 7700 nM | 
18 | CC(C)N1CCOc2c(F)cc(-c3nc(Nc4ccc(S(=O)(=O)N5CCN(C)CC5)cc4)ncc3F)cc21 [Compound 522, 5-fluoro-4-(8-fluoro-4-isopropyl-3,4-dihydro-2H-benzo[b][1,4]oxazin-6-yl)-N-(4-((4-methylpiperazin-1-yl)sulfonyl)phenyl)pyrimidin-2-amine] |  |  |  | 105 nM | 36 nM | 345 nM | 395 nM | 
19 | CC(C)N1CCOc2c(F)cc(-c3nc(Nc4ccc(N5CCC(N)CC5)cn4)ncc3F)cc21 [Compound 788, N-(5-(4-aminopiperidin-1-yl)pyridin-2-yl)-5-fluoro-4-(8-fluoro-4-isopropyl-3,4-dihydro-2H-benzo[b][1,4]oxazin-6-yl)pyrimidin-2-amine] |  |  |  | 4 nM | 2 nM | 130 nM |  | 920 nM
20 | CC(C)N1CCOc2c(F)cc(-c3nc(Nc4ccc(S(=O)(=O)NC5CCNCC5)cc4)ncc3F)cc21 [Compound 791, 4-((5-fluoro-4-(8-fluoro-4-isopropyl-3,4-dihydro-2H-benzo[b][1,4]oxazin-6-yl)pyrimidin-2-yl)amino)-N-(piperidin-4-yl)benzenesulfonamide] |  |  |  | 41 nM | 9 nM | 90 nM | 205 nM | 
21 | CC(C)N1CCOc2c(F)cc(-c3nc(Nc4ccc(CN5CCN(C)CC5)c(F)c4)ncc3F)cc21 [Compound 792, 5-fluoro-N-(3-fluoro-4-((4-methylpiperazin-1-yl)methyl)phenyl)-4-(8-fluoro-4-isopropyl-3,4-dihydro-2H-benzo[b][1,4]oxazin-6-yl)pyrimidin-2-amine] |  |  |  | 4 nM | 4 nM | 32 nM |  | 75 nM

From patent US11174252B2, “Heterocyclic compounds as kinase inhibitors” (priority 2018, dated 2021)
